Laboratory results: ChEMBL document CHEMBL1148809, “Biological evaluation, structure-activity relationships, and three-dimensional quantitative structure-activity relationship studies of dihydro-beta-agarofuran sesquiterpenes as modulators of P-glycoprotein-dependent multidrug resistance” (J Med Chem, 2007)
pKi: −log10 of the molar value.

Tests used:
[1] = Partition coefficient, log P of the compound; type: physicochemical; details: octanol/water
[2] = target: ATP-dependent translocase ABCB1 (Homo sapiens, UniProt P08183); assay: (§1) Inhibition of human Pgp-mediated DNR transport in NIH3T3 cells by microplate assay; type: cell-based, Mus musculus; details: for pKi: read-out: Ki; for Ki: read-out: Log Ki (converted)
P-gp (ABCB1) = P-gp (ABCB1) (Homo sapiens, UniProt P08183); assay: as §1; type: cell-based, Mus musculus; details: mouse, NIH3T3 cells expressing human P-gp, probe DNR; read-out: Imax
P-gp (ABCB1), sequence (P08183 whole entry): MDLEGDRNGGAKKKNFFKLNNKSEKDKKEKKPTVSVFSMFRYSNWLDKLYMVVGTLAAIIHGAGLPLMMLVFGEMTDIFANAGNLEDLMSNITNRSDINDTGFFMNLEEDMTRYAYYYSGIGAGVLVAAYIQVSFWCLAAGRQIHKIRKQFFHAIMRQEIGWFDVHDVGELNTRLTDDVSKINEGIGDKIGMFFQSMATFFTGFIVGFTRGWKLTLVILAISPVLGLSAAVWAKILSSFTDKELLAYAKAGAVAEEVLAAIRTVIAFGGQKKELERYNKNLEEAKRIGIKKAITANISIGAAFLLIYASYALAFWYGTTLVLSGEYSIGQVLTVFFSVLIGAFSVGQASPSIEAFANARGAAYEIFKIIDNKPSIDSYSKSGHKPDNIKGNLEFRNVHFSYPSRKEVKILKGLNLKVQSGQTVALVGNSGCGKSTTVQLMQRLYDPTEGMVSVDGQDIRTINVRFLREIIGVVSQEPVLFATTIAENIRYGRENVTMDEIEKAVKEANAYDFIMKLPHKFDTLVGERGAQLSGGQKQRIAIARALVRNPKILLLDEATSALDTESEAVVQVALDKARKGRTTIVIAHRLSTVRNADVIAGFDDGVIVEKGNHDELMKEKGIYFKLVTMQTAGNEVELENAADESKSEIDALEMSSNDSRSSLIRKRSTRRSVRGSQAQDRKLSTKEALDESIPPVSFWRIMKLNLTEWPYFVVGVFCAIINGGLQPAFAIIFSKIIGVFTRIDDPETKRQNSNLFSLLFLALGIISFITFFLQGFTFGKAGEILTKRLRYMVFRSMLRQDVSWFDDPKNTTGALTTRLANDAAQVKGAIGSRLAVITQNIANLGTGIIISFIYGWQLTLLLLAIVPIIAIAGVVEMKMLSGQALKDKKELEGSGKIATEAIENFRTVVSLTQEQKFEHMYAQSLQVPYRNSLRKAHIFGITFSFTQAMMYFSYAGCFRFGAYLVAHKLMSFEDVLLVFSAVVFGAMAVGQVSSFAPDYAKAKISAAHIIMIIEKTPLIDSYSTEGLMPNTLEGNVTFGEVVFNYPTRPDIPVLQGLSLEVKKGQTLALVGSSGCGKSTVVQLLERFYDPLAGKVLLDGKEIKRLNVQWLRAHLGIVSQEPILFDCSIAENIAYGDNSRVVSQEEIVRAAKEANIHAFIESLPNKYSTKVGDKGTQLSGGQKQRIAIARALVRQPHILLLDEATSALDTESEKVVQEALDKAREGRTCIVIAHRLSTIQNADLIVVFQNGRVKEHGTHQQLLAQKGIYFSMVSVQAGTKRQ

ATP-dependent translocase ABCB1, sequence (P08183 whole entry): as above

| SMILES | logP ([1]; read-out: LogP) | pKi [2] | Emax (P-gp (ABCB1)) [%] | logP [1] | Ki [2] [nM] |
| --- | --- | --- | --- | --- | --- |
| CC(=O)OC[C@]12[C@H](OC(C)=O)C(=O)[C@@H]3[C@@H](OC(C)=O)[C@]1(OC3(C)C)[C@](C)(O)[C@@H](OC(C)=O)[C@H](OC(C)=O)[C@@H]2OC(=O)c1ccccc1 | 6 | 5.19 | 53.9 |  | 302 |
| CC(=O)OC[C@]12[C@H](OC(C)=O)[C@H](OC(C)=O)[C@@H]3[C@@H](OC(C)=O)[C@]1(O[C@@]3(C)COC(C)=O)[C@](C)(O)[C@@H](OC(C)=O)[C@H](OC(C)=O)[C@@H]2OC(C)=O | 3.6 | 5.16 | 31 |  |  |
| CC(=O)O[C@H]1[C@@H](OC(=O)c2ccccc2)C[C@@](C)(O)[C@]23OC(C)(C)[C@H](C[C@H](OC(=O)c4ccco4)[C@]12C)[C@H]3O | 5.7 | 5.60 | 68 |  |  |
| CC(=O)O[C@H]1C[C@@](C)(O)[C@]23OC(C)(C)[C@H](C[C@H](OC(=O)c4ccco4)[C@]2(C)[C@H]1OC(=O)c1ccccc1)[C@H]3OC(=O)c1ccco1 | 7.2 | 5.46 | 45.3 |  |  |
| CC(=O)OC[C@]12[C@H](OC(C)=O)C(=O)[C@@H]3[C@@H](OC(C)=O)[C@]1(OC3(C)C)[C@H](C)C[C@H](OC(C)=O)[C@@H]2OC(C)=O | 4 | 5.01 | 100 |  |  |
| CC(=O)O[C@@H]1[C@H]2C[C@H](OC(=O)c3ccco3)[C@]3(C)[C@@H](OC(C)=O)[C@@H](OC(=O)c4ccccc4)C[C@@](C)(O)[C@@]13OC2(C)C | 6.1 | 5.53 | 92.7 |  |  |
| CC(=O)OC[C@]12[C@H](OC(=O)c3ccccc3)[C@H](OC(=O)c3ccccc3)[C@@H]3[C@@H](OC(C)=O)[C@]1(OC3(C)C)[C@H](C)C[C@H](OC(=O)c1ccccc1)[C@@H]2OC(C)=O |  | 4.47 | 100 | 10.3 |  |
| CC(=O)OC[C@]12[C@@H](OC(=O)c3ccco3)C[C@@H]3[C@@H](OC(=O)c4ccco4)[C@]1(OC3(C)C)[C@](C)(O)C[C@H](OC(C)=O)[C@@H]2OC(C)=O | 5.4 | 5.61 | 76.9 |  |  |
| CC(=O)OC[C@]12[C@H](OC(=O)c3ccccc3)C(=O)[C@@H]3[C@@H](OC(C)=O)[C@]1(OC3(C)C)[C@H](C)C[C@H](OC(C)=O)[C@@H]2OC(=O)c1ccccc1 | 8.1 | 5.79 | 81.6 |  |  |
| CC(=O)O[C@H]1[C@H](OC(=O)c2ccccc2)[C@@]2(C)[C@@H](OC(=O)c3ccccc3)C[C@@H]3[C@@H](OC(C)=O)[C@]2(OC3(C)C)[C@](C)(O)[C@H]1OC(=O)c1cccnc1 | 8 | 5.43 | 98.8 |  |  |
| CC(=O)OC[C@]12[C@@H](OC(=O)c3ccccc3)C[C@@H]3[C@@H](OC(C)=O)[C@]1(OC3(C)C)[C@H](C)C[C@H](OC(C)=O)[C@@H]2OC(C)=O | 5.7 | 5.63 | 80.8 |  |  |
| CC(=O)O[C@H]1C[C@@](C)(O)[C@]23OC(C)(C)[C@H]([C@H](OC(=O)c4ccccc4)[C@H](OC(=O)c4ccccc4)[C@]2(C)[C@H]1OC(=O)c1ccccc1)[C@H]3OC(C)=O |  | 6.04 | 84.9 | 9.2 |  |
| CC(=O)O[C@H]1[C@@H](OC(=O)c2cccnc2)C[C@@](C)(O)[C@]23OC(C)(C)[C@H](C[C@H](OC(=O)c4ccco4)[C@]12C)[C@H]3OC(=O)c1ccco1 | 6.1 | 5.13 | 100 |  |  |
| CC(=O)O[C@H]1[C@@H](O)[C@H](OC(=O)c2ccccc2)[C@@]2(C)[C@@H](OC(=O)/C=C/c3ccccc3)C[C@@H]3C[C@]2(OC3(C)C)[C@@H]1C | 6.2 | 5.37 | 63.7 |  |  |
| CC(=O)OC[C@]12[C@@H](OC(=O)c3ccccc3)C[C@@H]3[C@@H](OC(C)=O)[C@]1(OC3(C)C)[C@](C)(O)C[C@H](OC(C)=O)[C@@H]2OC(C)=O | 5 | 5.36 | 85 |  | 3470 |
| CC(=O)O[C@H]1CC[C@@](C)(O)[C@]23OC(C)(C)[C@H](C[C@H](OC(=O)c4ccco4)[C@]12C)[C@H]3OC(=O)c1ccco1 | 5.3 | 5.18 | 96.3 |  |  |
| CC(=O)O[C@H]1[C@H](OC(=O)c2ccccc2)[C@@]2(C)[C@@H](OC(=O)/C=C/c3ccccc3)C[C@@H]3[C@@H](OC(C)=O)[C@]2(OC3(C)C)[C@](C)(O)[C@H]1OC(=O)c1cccnc1 | 8 | 4.60 | 100 |  |  |
| CC(=O)OC[C@]12[C@@H](OC(=O)c3ccco3)C[C@@H]3[C@@H](OC(C)=O)[C@]1(OC3(C)C)[C@](C)(O)C[C@H](OC(=O)c1ccco1)[C@@H]2OC(=O)c1ccco1 | 6.5 | 5.35 | 99.4 |  |  |
| CC(=O)O[C@H]1[C@@H](O)C[C@@](C)(O)[C@]23OC(C)(C)[C@H](C[C@H](OC(=O)c4ccco4)[C@]12C)[C@H]3OC(=O)c1ccco1 | 4.3 | 5.38 | 51.8 |  |  |

Continued by rising pKi [2], values first:

| logP ([1]; read-out: LogP) | pKi [2] | Emax (P-gp (ABCB1)) [%] | logP [1] | SMILES | Ki [2] [nM] |
| --- | --- | --- | --- | --- | --- |
| 6.5 | 5.66 | 80.5 |  | CC(=O)O[C@H]1[C@@H](OC(=O)c2ccco2)C[C@@](C)(O)[C@]23OC(C)(C)[C@H](C[C@H](OC(=O)c4ccco4)[C@]12C)[C@H]3OC(=O)c1ccco1 |  |
| 7.8 | 5.87 | 100 |  | CC(=O)O[C@H]1[C@@H]2C[C@@]3(OC2(C)C)[C@](C)([C@H]1OC(=O)c1ccccc1)[C@@H](OC(=O)c1cccnc1)[C@H](OC(C)=O)[C@H](OC(=O)c1ccccc1)[C@@]3(C)O |  |
| 6.8 | 5.90 | 88.7 |  | CC(=O)O[C@H]1[C@@H]2C[C@@]3(OC2(C)C)[C@](C)([C@H]1OC(=O)c1ccccc1)[C@@H](OC(=O)c1ccccc1)[C@H](OC(C)=O)[C@H](OC(C)=O)[C@@]3(C)O |  |
|  | 5.91 | 100 | 9.6 | CC(=O)OC[C@@]12[C@@H](OC(=O)c3ccccc3)CC[C@@](C)(O)[C@]13OC(C)(C)[C@H]([C@@H](OC(=O)c1ccccc1)[C@H]2OC(=O)c1ccccc1)[C@H]3OC(C)=O |  |
| 5 | 6.02 | 75.2 |  | CC(=O)O[C@H]1C[C@@](C)(O)[C@]23OC(C)(C)[C@H](C[C@H](OC(=O)c4ccco4)[C@]2(C)[C@H]1OC(C)=O)[C@H]3OC(=O)C(C)(C)C |  |
| 8.8 | 6.14 | 98.7 |  | CC(=O)O[C@H]1[C@H](OC(=O)c2ccccc2)[C@@]2(C)[C@@H](OC(=O)c3ccccc3)[C@@H](OC(=O)c3ccccc3)[C@@H]3C[C@]2(OC3(C)C)[C@](C)(O)[C@H]1OC(C)=O |  |
| 8.4 | 6.15 | 85.8 |  | CC(=O)OC[C@]12[C@@H](OC(=O)c3ccccc3)C[C@@H]3[C@@H](OC(=O)c4ccccc4)[C@]1(OC3(C)C)[C@H](C)C[C@H](OC(=O)c1cccnc1)[C@@H]2OC(C)=O |  |
| 7.1 | 6.15 | 93.1 |  | CC(=O)O[C@H]1[C@@H](OC(=O)c2ccccc2)C[C@@](C)(O)[C@]23OC(C)(C)[C@H](C[C@H](OC(=O)c4ccco4)[C@]12C)[C@H]3OC(=O)c1ccco1 |  |
| 6.6 | 6.24 | 95.5 |  | CCCCCO[C@H]1C[C@@](C)(O)[C@]23OC(C)(C)[C@H](C[C@H](OC(=O)c4ccco4)[C@]2(C)[C@H]1OC(C)=O)[C@H]3OC(=O)c1ccco1 |  |
